Values after ≈ are worked out from the molar mass of the structure shown.
Experiments:
[1] = Soluble acyclovir in acyclovir sodium gels by centrifugation and HPLC; settings: for soluble species contributing to soluble acyclovir: 88 mole % sodium hydroxide, based on base charge / calculated by difference
Text: The presence or absence of a pellet was noted and an aliquot of the supernatant was removed for dilution and analysis by HPLC.
(§1) Essentially the same values are obtained from the propylene glycol/water formulations. […] The observed pH of the 88% neutralized solutions is weakly affected by the cosolvent to water ratio.

[2] = Solubility of acyclovir and sodium acyclovir in water and cosolvent mixtures; settings: propylene glycol/water solution, aqueous with cosolvent or surfactant or cyclodextrin
physchem [3] = settings: pH 11
Text: as §1

[4] = pH 7; cited from earlier work
physchem [5] = experiment: physchem

Compound	soluble species contributing to soluble acyclovir ([1]; glycerin solutions, listed as neutral acyclovir)	soluble acyclovir (total) ([1]; partial neutralization (88 mole % sodium hydroxide), glycerin solutions)	solubility [2]	pKa (physchem [3])	solubility in water [4]	solubility (physchem [5]; pH 7, aqueous with cosolvent or surfactant or cyclodextrin)	soluble species contributing to soluble acyclovir ([1]; glycerin solutions)	solubility in gels with complete neutralization ([1]; 105 and 116 mole % sodium hydroxide)	solubility (physchem [5]; water)
Nc1nc2c(ncn2COCCO)c(=O)[nH]1 [acyclovir]	0.3%	5.3%	3000 µg/mL (≈ 13.3 mM)	9.8	1300 µg/mL (≈ 5.77 mM)	3000 µg/mL (≈ 13.3 mM)			
Nc1nc2c(ncn2COCCO)c(=O)[nH]1 [sodium acyclovir]							5.0%	greater than 5.7 weight percent	> 100000 µg/mL
